Test results taken from ChEMBL document CHEMBL1201862, “PubChem BioAssay data set” (2004).
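These data come from cells grown in 96-well plates and exposed to compound for 48 hours at five concentrations. Here, GI50 denotes the concentration required for 50% inhibition of growth.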 Activity calls are given as the source filed them. No stated cut-off is given here; in the data, active = GI50 up to about 1.1 µM and inactive = higher.

Legend:
Assay in all cases: growth of human tumour cells (NCI), 48 h
[1] = test system: NCI-H460
[2] = test system: SF-539
[3] = test system: NCI/ADR-RES
[4] = test system: MDA-MB-231
[5] = test system: MOLT-4
[6] = test system: 786-0
[7] = test system: RPMI-8226
[8] = test system: SN12C
[9] = test system: MDA-N
[10] = test system: Hs-578T
[11] = test system: HL-60
[12] = test system: SK-MEL-28
[13] = test system: SNB-19
[14] = test system: U-251
[15] = test system: TK-10
[16] = test system: KM12
[17] = test system: HOP-92
[18] = test system: HCT-15
[19] = test system: SF-268
[20] = test system: ACHN
[21] = test system: DU-145
[22] = test system: UO-31
[23] = test system: LOX IMVI
[24] = test system: SK-OV-3
[25] = test system: OVCAR-4
[26] = test system: NCI-H522
[27] = test system: OVCAR-8
[28] = test system: UACC-62
[29] = test system: SR
[30] = test system: MDA-MB-435
[31] = test system: K562
[32] = test system: OVCAR-5
[33] = test system: T47D
[34] = test system: HOP-62
[35] = test system: IGROV-1
[36] = test system: A498
[37] = test system: HT-29
[38] = test system: EKVX
[39] = test system: SNB-75
[40] = test system: PC-3
[41] = test system: SF-295
[42] = test system: M14
[43] = test system: HCT-116
[44] = test system: UACC-257
[45] = test system: OVCAR-3
[46] = test system: A549
[47] = test system: NCI-H226
[48] = test system: MCF7
[49] = test system: SW-620
[50] = test system: SK-MEL-2
[51] = test system: CAKI-1
[52] = test system: NCI-H23
[53] = test system: RXF 393

In the case of CC12OC3(C(O)C1O)C(C(=O)O[C@H]3CO[Si](C)(C)C(C)(C)C)C2S(=O)(=O)c1ccccc1 (stereo partly specified), the GI50 [1] is reported as 44.7 µM (inactive), the GI50 [2] is reported as 58.1 µM (inactive) and the GI50 [3] is reported as 11.9 µM (inactive). For the same molecule, the GI50 [4] was 60.3 µM (inactive), the GI50 [5] was 23.6 µM (inactive) and the GI50 [6] was 71.1 µM (inactive). The GI50 [7] was 27.1 µM (inactive), the GI50 [8] was > 100 µM (inactive) and the GI50 [9] was 61.4 µM (inactive). The GI50 [10] was 30 µM (inactive), the GI50 [11] was 25.9 µM (inactive) and the GI50 [12] was 56 µM (inactive). For the same molecule, the GI50 [13] was 40 µM (inactive), the GI50 [14] was 86.3 µM (inactive) and the GI50 [15] was 59.8 µM (inactive). For the same molecule, the GI50 [16] was 33.3 µM (inactive), the GI50 [17] was 38.3 µM (inactive) and the GI50 [18] was 33.7 µM. The GI50 [19] was 47.4 µM (inactive), the GI50 [20] was 48.1 µM (inactive) and the GI50 [21] was > 100 µM (inactive). For the same molecule, the GI50 [22] was 40.8 µM (inactive), the GI50 [23] was 18.7 µM (inactive) and the GI50 [24] was > 100 µM (inactive). For the same molecule, the GI50 [25] was 34 µM (inactive), the GI50 [26] was 17.5 µM (inactive) and the GI50 [27] was 29.9 µM (inactive). The GI50 [28] was 16.1 µM (inactive), the GI50 [29] was 41.9 µM (inactive) and the GI50 [30] was 34.4 µM (inactive). For the same molecule, the GI50 [31] was 37.8 µM (inactive), the GI50 [32] was > 100 µM (inactive) and the GI50 [33] was 36.1 µM (inactive). The GI50 [34] was > 100 µM (inactive), the GI50 [35] was 21 µM (inactive) and the GI50 [36] was > 100 µM (inactive). The GI50 [37] was 33.3 µM (inactive), the GI50 [38] was 46.9 µM (inactive) and the GI50 [39] was 13.9 µM (inactive). For the same molecule, the GI50 [40] was 26.9 µM (inactive), the GI50 [41] was 43.1 µM (inactive) and the GI50 [42] was 51.2 µM (inactive). The GI50 [43] was 61.5 µM (inactive), the GI50 [44] was 25.8 µM (inactive) and the GI50 [45] was 40.6 µM (inactive). The GI50 [46] was 45 µM (inactive), the GI50 [47] was 5.21 µM (inactive) and the GI50 [48] was 36.1 µM (inactive). For the same molecule, the GI50 [49] was 81.5 µM (inactive) and the GI50 [50] was 88.7 µM (inactive).
With CN(C)C1COC2Cc3ccccc3C1O2 (stereo unspecified) the GI50 [51] was > 100 µM (inactive), the GI50 [8] was > 100 µM (inactive) and the GI50 [15] was > 100 µM (inactive). The GI50 [17] was > 100 µM (inactive), the GI50 [18] was > 100 µM and the GI50 [19] was > 100 µM (inactive). For the same molecule, the GI50 [52] was > 100 µM (inactive), the GI50 [20] was > 100 µM (inactive) and the GI50 [23] was > 100 µM (inactive). The GI50 [24] was > 100 µM (inactive), the GI50 [25] was > 100 µM (inactive) and the GI50 [27] was > 100 µM (inactive). The GI50 [29] was > 100 µM (inactive), the GI50 [31] was > 100 µM (inactive) and the GI50 [32] was > 100 µM (inactive). The GI50 [53] was > 100 µM (inactive), the GI50 [37] was > 100 µM (inactive) and the GI50 [41] was > 100 µM (inactive). For the same molecule, the GI50 [42] was > 100 µM (inactive), the GI50 [43] was > 100 µM (inactive) and the GI50 [46] was > 100 µM (inactive).
